In ChEMBL document CHEMBL1131401, “Potent and selective bicyclic lactam inhibitors of thrombin: Part 2: P1 modifications” (Bioorg Med Chem Lett, 1998):

What was measured:
[1] = test system: Rattus norvegicus; assay: In vivo mean occlusion time for the antithrombic activity in rat arterial thrombosis model; type: functional
[2] = biological target: T1, Serine protease 1 (Homo sapiens, UniProt P07477); assay: In vitro inhibitory activity against trypsin
[3] = biological target: Prothrombin (Homo sapiens, UniProt P00734); assay: In vitro inhibitory activity against thrombin(FIIa)
[4] = biological target: T1, Serine protease 1; assay: In vitro inhibitory activity against trypsin at concentration 100 uM

T1 sequence (P07477 whole entry): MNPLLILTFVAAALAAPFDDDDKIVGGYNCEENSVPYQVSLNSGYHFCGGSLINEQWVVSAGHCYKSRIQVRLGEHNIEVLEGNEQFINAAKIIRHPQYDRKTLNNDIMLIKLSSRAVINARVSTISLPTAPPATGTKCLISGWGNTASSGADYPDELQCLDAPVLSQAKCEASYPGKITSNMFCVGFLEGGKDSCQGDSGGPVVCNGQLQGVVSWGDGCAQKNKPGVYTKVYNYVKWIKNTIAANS

With `N=C(N)NCCC[C@H](NC(=O)[C@@H]1CC[C@H]2CN(C(=O)CCc3ccccc3)CC(=O)N21)C(=O)c1nccs1` the MOT [1] was 42 min and the IC50 [2] was less than 1 nM.

`N=C(N)N1CCC([C@H](NC(=O)[C@@H]2CC[C@H]3CN(C(=O)CCc4ccccc4)CC(=O)N32)C(=O)c2nccs2)CC1` showed an MOT [1] of 57 min, an IC50 [3] of 1 nM and an IC50 [2] of 11900 nM.

Compound `N=C(N)N1CCCC(C[C@H](NC(=O)[C@@H]2CC[C@H]3CN(C(=O)CCc4ccccc4)CC(=O)N32)C(=O)c2nccs2)C1` (some centres undefined) has an MOT [1] greater than 60 min, an IC50 [3] of 30 nM and an IC50 [2] of 4360 nM.

Compound `N=C(N)N1CCCC(C[C@@H](NC(=O)[C@@H]2CC[C@H]3CN(C(=O)CCc4ccccc4)CC(=O)N32)C(=O)c2nccs2)C1` (some centres undefined) has an MOT [1] of 27 min, an IC50 [3] of 137 nM and an IC50 [2] of 31600 nM.

`N[C@H]1CC[C@H]([C@H](NC(=O)[C@@H]2CC[C@H]3CN(C(=O)CCc4ccccc4)CC(=O)N32)C(=O)c2nccs2)CC1` was tested, and the MOT [1] was 48 min, the IC50 [3] was 33 nM and the IC50 [2] was 8990 nM.

`N=C(N)N1CCC([C@@H](NC(=O)[C@@H]2CC[C@H]3CN(C(=O)CCc4ccccc4)CC(=O)N32)C(=O)c2nccs2)CC1` showed an inhibition [4] of 31% and an IC50 [3] of 150 nM.

`N=C(N)c1cccc(C[C@H](NC(=O)[C@@H]2CC[C@H]3CN(C(=O)CCc4ccccc4)CC(=O)N32)C(=O)c2nccs2)c1` was tested, and the MOT [1] was 18 min, the IC50 [3] was 77 nM and the IC50 [2] was 7750 nM.
